ChEMBL document CHEMBL1201862, “PubChem BioAssay data set” (2004)
Counter-ions that a name gives are not always drawn.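 Where inhibition never reached the appropriate level, the endpoint shown equals the highest concentration tested. Otherwise, values were interpolated linearly from a five-concentration, 48-hour dose response in 96-well plates. GI50: concentration for 50% inhibition of growth.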 Calls of active or inactive are those of the source. Cut-off read from the data, not from the text of the source: active = GI50 up to about 1.1 µM and inactive = higher.

What was measured:
Experiment in all cases: NCI tumour cell line growth inhibition, 48 h
[1] = system: EKVX
[2] = system: HT-29
[3] = system: KM12
[4] = system: LOX IMVI
[5] = system: MOLT-4
[6] = system: NCI-H226
[7] = system: OVCAR-8
[8] = system: RPMI-8226
[9] = system: RXF 393
[10] = system: SF-268
[11] = system: SF-539
[12] = system: SN12C
[13] = system: SNB-19
[14] = system: SNB-75
[15] = system: U-251
[16] = system: UACC-257
[17] = system: UACC-62
[18] = system: UO-31
[19] = system: T47D

| SMILES | GI50 [1] | GI50 [2] | GI50 [3] | GI50 [4] | GI50 [5] | GI50 [6] | GI50 [7] | GI50 [8] | GI50 [9] | GI50 [10] | GI50 [11] | GI50 [12] | GI50 [13] | GI50 [14] | GI50 [15] | GI50 [16] | GI50 [17] | GI50 [18] | GI50 [19] |
| --- | --- | --- | --- | --- | --- | --- | --- | --- | --- | --- | --- | --- | --- | --- | --- | --- | --- | --- | --- |
| O=S(=O)(/C=C/c1ccc(F)cc1)Cc1ccc(CS(=O)(=O)/C=C/c2ccc(F)cc2)cc1 | > 100 µM (inactive) | > 100 µM (inactive) | > 100 µM (inactive) | > 100 µM (inactive) | > 100 µM (inactive) | > 100 µM (inactive) | > 100 µM (inactive) | > 100 µM (inactive) | > 100 µM (inactive) | > 100 µM (inactive) | > 100 µM (inactive) | > 100 µM (inactive) | > 100 µM (inactive) | > 100 µM (inactive) | > 100 µM (inactive) | > 100 µM (inactive) | > 100 µM (inactive) | > 100 µM (inactive) |  |
| COc1cc2c3c(c1OC)C1(C=CC(=O)C=C1)CC3N(C(=O)OC(C)(C)C(Cl)(Cl)Cl)CC2 (stereo not given) | 16.8 µM (inactive) | 8.53 µM (inactive) | 9.2 µM (inactive) | 10.1 µM (inactive) | 2.97 µM (inactive) | 15.9 µM (inactive) | 8.85 µM (inactive) | 2.23 µM (inactive) | 4.16 µM (inactive) | 13.1 µM (inactive) | 15.7 µM (inactive) | 11.6 µM (inactive) | 14.9 µM (inactive) | 15.1 µM (inactive) | 10.5 µM (inactive) | 10.4 µM (inactive) | 13.1 µM (inactive) | 14.5 µM (inactive) |  |
| CC(=O)C(CN(Cc1ccccc1)Cc1ccccc1)C(c1ccccc1)c1c(O)c2ccccc2oc1=O (stereo not given) | > 100 µM (inactive) | > 100 µM (inactive) | > 100 µM (inactive) | > 100 µM (inactive) |  | > 100 µM (inactive) | > 100 µM (inactive) | > 100 µM (inactive) | > 100 µM (inactive) | > 100 µM (inactive) | > 100 µM (inactive) | > 100 µM (inactive) | > 100 µM (inactive) | > 100 µM (inactive) | > 100 µM (inactive) | > 100 µM (inactive) | > 100 µM (inactive) | > 100 µM (inactive) |  |
| Cc1cc(C)[n+](CCOc2ccc(/C(=C(/Cl)c3ccccc3)c3ccccc3)cc2)c(C)c1.[O-][Cl+3]([O-])([O-])[O-] | 0.887 µM (active) | 0.809 µM (active) | 0.697 µM (active) | 0.778 µM (active) | 1.28 µM (inactive) | 1.32 µM (inactive) | 1.33 µM (inactive) | 0.348 µM (active) | 2.49 µM (inactive) | 0.933 µM (active) | 1.8 µM (inactive) | 0.774 µM (active) | 0.865 µM (active) | 0.697 µM (active) | 0.685 µM (active) | 0.692 µM (active) | 0.741 µM (active) | 14.8 µM (inactive) |  |
| O=C(CCO)OCCCCCC/C=C\CCCCCC/C=C\CCCCCCCCOC(=O)CCO | 18.3 µM (inactive) | 17.7 µM (inactive) | 19.1 µM (inactive) | 18.4 µM (inactive) | 14.6 µM (inactive) |  | 18.5 µM (inactive) |  | 18.9 µM (inactive) | 18.5 µM (inactive) | > 100 µM (inactive) | 17.2 µM (inactive) | 18.9 µM (inactive) | 19.8 µM (inactive) | 16.7 µM (inactive) | 17.2 µM (inactive) | 16.3 µM (inactive) | 18.6 µM (inactive) | 17.1 µM (inactive) |
| COC(=O)C1=CC2OC1(C)C1(CC1)C2=O (stereo not given) | 15.2 µM (inactive) | 12.9 µM (inactive) | 20.6 µM (inactive) | 14 µM (inactive) | 6.92 µM (inactive) | 21.6 µM (inactive) | 16 µM (inactive) | 6.85 µM (inactive) | 15.5 µM (inactive) | 20.3 µM (inactive) | 17.6 µM (inactive) | 16.6 µM (inactive) | > 100 µM (inactive) | 19.8 µM (inactive) | > 100 µM (inactive) | 16.1 µM (inactive) |  | 22.1 µM (inactive) |  |
| O=C(O)c1ccc(NC(=O)C2C(=O)C(=O)N(c3ccc(C(=O)O)cc3)C2=O)cc1 (stereo not given) | > 100 µM (inactive) | > 100 µM (inactive) | > 100 µM (inactive) | > 100 µM (inactive) | > 100 µM (inactive) | > 100 µM (inactive) | > 100 µM (inactive) | > 100 µM (inactive) | > 100 µM (inactive) | > 100 µM (inactive) | > 100 µM (inactive) | > 100 µM (inactive) | > 100 µM (inactive) | > 100 µM (inactive) | > 100 µM (inactive) | > 100 µM (inactive) | > 100 µM (inactive) | > 100 µM (inactive) |  |
| O=C(O)C(CS)NCc1c2ccccc2nc2ccccc12 (stereo not given) | 38.5 µM (inactive) | 35.6 µM (inactive) | 26.9 µM (inactive) | 30.5 µM (inactive) | 15.3 µM (inactive) | > 100 µM (inactive) | 32.6 µM (inactive) | 22 µM (inactive) | 24.2 µM (inactive) | 40.7 µM (inactive) | 33.9 µM (inactive) | 34.2 µM (inactive) | 58.6 µM (inactive) | 65.8 µM (inactive) | 92 µM (inactive) | 57.8 µM (inactive) |  | 18.5 µM (inactive) |  |
| COc1cc2c(oc(=O)c3cc4ccoc4c(OC)c32)c2cccc(O)c12 | > 100 µM (inactive) | > 100 µM (inactive) | > 100 µM (inactive) | > 100 µM (inactive) | > 100 µM (inactive) | > 100 µM (inactive) | > 100 µM (inactive) | > 100 µM (inactive) | > 100 µM (inactive) | > 100 µM (inactive) | > 100 µM (inactive) | > 100 µM (inactive) | > 100 µM (inactive) | 60.3 µM (inactive) | > 100 µM (inactive) | > 100 µM (inactive) | > 100 µM (inactive) | > 100 µM (inactive) |  |
| COC(=O)C(C(=O)C(N)=O)c1csc(-n2nc(-c3ccccc3)cc2-c2ccccc2)n1 (stereo not given) | 13.9 µM (inactive) | 41.9 µM (inactive) | 22.6 µM (inactive) | > 88.1 µM (inactive) | 25.5 µM (inactive) | 20.9 µM (inactive) | 30.4 µM (inactive) | > 31.6 µM (inactive) | > 31.6 µM (inactive) | > 31.6 µM (inactive) | > 31.6 µM (inactive) | > 10 µM (inactive) | 12.5 µM (inactive) | > 31.6 µM (inactive) | 24.5 µM (inactive) | 19.8 µM (inactive) | > 31.6 µM (inactive) | 13.5 µM (inactive) |  |
| COC(=O)c1ccccc1NC(=O)C(=O)Cc1nc2c3c(ccc2nc1O)C(=O)c1ccccc1C3=O | 5.21 µM (inactive) | 35.9 µM (inactive) | 5.26 µM (inactive) | 12.5 µM (inactive) | 10.3 µM (inactive) | 4.48 µM (inactive) | 24.3 µM (inactive) | 8.2 µM (inactive) | 2.08 µM (inactive) | 6.38 µM (inactive) | 23.9 µM (inactive) | 29.6 µM (inactive) | 12.6 µM (inactive) | 28.1 µM (inactive) | 17.1 µM (inactive) | 16.3 µM (inactive) | 4.48 µM (inactive) | 12.2 µM (inactive) |  |
| O=C(CC(=O)C1CCOC1=O)C(=O)Nc1cccc(Cl)c1 (stereo not given) | > 100 µM (inactive) | > 100 µM (inactive) | > 100 µM (inactive) | > 100 µM (inactive) | > 100 µM (inactive) | > 100 µM (inactive) | > 100 µM (inactive) | > 100 µM (inactive) | > 100 µM (inactive) | > 100 µM (inactive) | > 100 µM (inactive) | > 100 µM (inactive) | > 100 µM (inactive) | > 100 µM (inactive) | > 100 µM (inactive) | > 100 µM (inactive) | > 100 µM (inactive) | > 100 µM (inactive) |  |
| Cc1cc(-c2c(Br)cc(C(=O)O)n2C)on1 | > 100 µM (inactive) | > 100 µM (inactive) | > 100 µM (inactive) | > 100 µM (inactive) | > 100 µM (inactive) | > 100 µM (inactive) | > 100 µM (inactive) | > 100 µM (inactive) |  | > 100 µM (inactive) | > 100 µM (inactive) | > 100 µM (inactive) | > 100 µM (inactive) | > 100 µM (inactive) | > 100 µM (inactive) | > 100 µM (inactive) | > 100 µM (inactive) | > 100 µM (inactive) | > 100 µM (inactive) |
| CN1C(=O)C(O)CC1c1cccc(F)c1 (stereo not given) | > 100 µM (inactive) | > 100 µM (inactive) | > 100 µM (inactive) | > 100 µM (inactive) | > 100 µM (inactive) | > 100 µM (inactive) | > 100 µM (inactive) | > 100 µM (inactive) | > 100 µM (inactive) |  | > 100 µM (inactive) | > 100 µM (inactive) | > 100 µM (inactive) | 55.7 µM (inactive) | > 100 µM (inactive) | > 100 µM (inactive) | > 100 µM (inactive) | > 100 µM (inactive) |  |
| c1ccc([C@H]2CN3CCSC3=N2)cc1 [LEVAMISOLE HYDROCHLORIDE] | > 100 µM (inactive) | > 100 µM (inactive) | > 100 µM (inactive) | > 100 µM (inactive) | > 100 µM (inactive) | > 100 µM (inactive) | > 100 µM (inactive) |  | > 100 µM (inactive) | > 100 µM (inactive) | > 100 µM (inactive) | > 100 µM (inactive) | > 100 µM (inactive) | > 100 µM (inactive) | > 100 µM (inactive) | > 100 µM (inactive) | > 100 µM (inactive) | > 100 µM (inactive) | > 100 µM (inactive) |
